The values below come from ChEMBL document CHEMBL1143899, “Aryl-indolyl maleimides as inhibitors of CaMKIIdelta. Part 3: Importance of the indole orientation” (Bioorg Med Chem Lett, 2008).

T1 sequence (Q13557 whole entry): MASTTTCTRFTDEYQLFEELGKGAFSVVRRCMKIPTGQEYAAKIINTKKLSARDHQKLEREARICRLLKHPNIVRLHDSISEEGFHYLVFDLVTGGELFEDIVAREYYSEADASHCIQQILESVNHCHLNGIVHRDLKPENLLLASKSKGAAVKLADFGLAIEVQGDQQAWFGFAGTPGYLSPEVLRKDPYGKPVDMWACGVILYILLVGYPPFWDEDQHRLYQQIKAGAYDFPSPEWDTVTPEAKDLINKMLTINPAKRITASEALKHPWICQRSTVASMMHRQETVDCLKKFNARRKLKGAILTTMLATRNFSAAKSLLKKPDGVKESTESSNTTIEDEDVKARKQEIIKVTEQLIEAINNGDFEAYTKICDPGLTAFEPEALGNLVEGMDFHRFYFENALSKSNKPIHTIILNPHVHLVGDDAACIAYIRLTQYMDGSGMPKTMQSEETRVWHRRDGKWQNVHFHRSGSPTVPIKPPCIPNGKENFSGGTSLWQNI

The first assay has as its target T1, Calcium/calmodulin-dependent protein kinase type II subunit delta (Homo sapiens, UniProt Q13557). In words: Inhibition of CaMK2delta using freshly stock solution of compound.
For `NCCCn1cc(C2=C(c3ccccc3)C(=O)NC2=O)c2ccccc21`, the IC50 came to 350 nM.

Turning to `NCCCn1cc(C2=C(c3csc4ccccc34)C(=O)NC2=O)c2ccccc21`, the concentration for half-maximal inhibition (IC50) worked out at 360 nM.

The target in a further assay is T1, Calcium/calmodulin-dependent protein kinase type II subunit delta. Nature of the assay: Inhibition of CaMK2delta using 3 weeks old stock solution of compound.
For `NCCCn1cc(C2=C(c3ccccc3)C(=O)NC2=O)c2ccccc21`, the half-inhibitory concentration (IC50) came out at 230 nM.

Take `NCCCn1cc(C2=C(c3csc4ccccc34)C(=O)NC2=O)c2ccccc21`: the IC50 is below 39 nM.

A further assay has the same target. Nature of the assay: Inhibition of CaMK2delta.
With `COc1ccc2[nH]cc(C3=C(n4cc(CCN)c5ccccc54)C(=O)NC3=O)c2c1`, the IC50 is 170 nM.

In the case of `NCCc1cn(C2=C(c3c[nH]c4ccc(F)cc34)C(=O)NC2=O)c2ccccc12`, the IC50 turned out to be 38 nM.

As to `CNCCc1cn(C2=C(c3c[nH]c4ccc(C(=O)O)cc34)C(=O)NC2=O)c2ccccc12`, the IC50 was 380 nM.

For `CCc1ccc2[nH]cc(C3=C(n4cc(CCNC)c5ccccc54)C(=O)NC3=O)c2c1`, the IC50 came out at 110 nM.

As to `CNCCc1cn(C2=C(c3c[nH]c4ccccc34)C(=O)NC2=O)c2ccccc12`, the IC50 was 150 nM.

`CNCCc1cn(C2=C(c3c[nH]c4ccc(C(=O)NC)cc34)C(=O)NC2=O)c2ccccc12`: the IC50 came to 280 nM.

For the molecule `CN(C)CCc1cn(C2=C(c3c[nH]c4ccccc34)C(=O)NC2=O)c2ccccc12`, the IC50 turned out to be 560 nM.

In the case of `NCCc1cn(C2=C(c3c[nH]c4ccccc34)C(=O)NC2=O)c2ccccc12`, the IC50 worked out at 110 nM.

In the case of `N#Cc1ccc2[nH]cc(C3=C(n4cc(CCN)c5ccccc54)C(=O)NC3=O)c2c1`, the 50% inhibitory concentration (IC50) was determined as 46 nM.

For the molecule `Cc1[nH]c2ccccc2c1C1=C(c2cn(CCCN)c3ccccc23)C(=O)NC1=O`, the IC50 worked out at 750 nM.

As to `NCCCn1cc(C2=C(c3c[nH]c4ccccc34)C(=O)NC2=O)c2ccccc21`, the IC50 was 380 nM.

Regarding `CNCCc1cn(C2=C(c3c[nH]c4ccc(C(=O)N(C)C)cc34)C(=O)NC2=O)c2ccccc12`, the IC50 is 11800 nM.

With `CN(C)Cc1cn(C2=C(c3c[nH]c4ccccc34)C(=O)NC2=O)c2ccccc12`, the IC50 stood at 2410 nM.

For the molecule `NCCc1cn(C2=C(c3c[nH]c4ccc(C(F)(F)F)cc34)C(=O)NC2=O)c2ccccc12`, the IC50 worked out at 32 nM.

For `CNCCc1cn(C2=C(c3c[nH]c4ccc(C(=O)OC)cc34)C(=O)NC2=O)c2ccccc12`, the IC50 is 21 nM.

As for `NCCc1cn(C2=C(c3c[nH]c4ccc(Cl)cc34)C(=O)NC2=O)c2ccccc12`, the half-maximal inhibitory concentration (IC50) was 10 nM.

`NCCCn1cc(C2=C(n3ccc4ccccc43)C(=O)NC2=O)c2ccccc21`: the IC50 was 4560 nM.

For the molecule `CNCCc1cn(C2=C(c3c[nH]c4ccc(Cl)cc34)C(=O)NC2=O)c2ccccc12`, the IC50 was 13 nM.

With `CNCCc1cn(C2=C(c3c[nH]c4ccc(C(N)=O)cc34)C(=O)NC2=O)c2ccccc12`, the IC50 came out at 190 nM.
